Measurements reported in patent US6537587B1, “Compositions containing muscle-derived active agents” (Can-Fite Biopharma Ltd., priority 1999, dated 2003).

Test system: peripheral blood leukocytes and neutrophils
Settings: cyclophosphamide only, 50 mg/kg i.p.; blood at 96 hours; FIG. 4
Experimental: Mice were injected intraperitoneally (i.p.) with 50 mg/kg body weight of cyclophospharnide. The mice were then divided into the following three groups:
2. Mice receiving cyclophosphamide only (control 1); and
3. An additional group of mice received oral administration of water only (control 2).
Ninety six hours after the beginning of receiving the above treatments, blood samples were taken from each of the treated mice. Blood cell counts were carried out in a Coulter counter and differential cell counts were performed on smear preparations stained with May-Grunvald-Giemsa solution.

O=P1(N(CCCl)CCCl)NCCCO1 (centres unmarked) [cyclophosphamide]
number of neutrophils compared to mice without chemotherapeutic treatment (control 2): reduced | number of peripheral blood leukocytes compared to mice without chemotherapeutic treatment (control 2): reduced
